Source: US7473669B2, “Substituted 4,5-dihydro-1,2,4-triazin-6-ones, 1,2,4-triazin-6-ones, and their use as fungicides” (priority 2005, dated 2009)

Legend:
[1] = system: Colletotricum lagenarium; test: Cucumber Anthracnose greenhouse one-day protectant test; format: in vivo; conditions: Cucumis sativus, 24 h, cucumber plants, one-day protectant test, 200 ppm application rate; read-out: COLLLA percent control rating
[2] = system: Erysiphe cichoracaerum; test: Cucumber Powdery Mildew greenhouse one-day protectant test; format: in vivo; conditions: 24 h, cucumber plants, one-day protectant test, 200 ppm application rate, read-out: ERYSCI percent control rating
[3] = system: Leptosphaeria nodorum; test: Glume Blotch of Wheat greenhouse one-day protectant test; format: in vivo; conditions: Parastagonospora nodorum, 24 h; wheat plants, one-day protectant test, 200 ppm application rate; read-out: LEPTNO percent control rating
[4] = system: Phytophthora infestans; test: whole plant or invertebrate; format: in vivo; conditions: in Solanum lycopersicum, 24 h, read-out: PHYTIN percent control rating, tomato plants, one-day protectant test, 200 ppm application rate
[5] = system: Puccinia recondita tritici; test: Leaf Rust of Wheat greenhouse one-day protectant test; format: in vivo; conditions: 24 h, wheat plants, one-day protectant test, 200 ppm application rate, read-out: PUCCRT percent control rating
[6] = system: Pyricularia oryzae; test: whole plant or invertebrate; format: in vivo; conditions: 24 h, read-out: PYRIOR percent control rating

Compound | pest or weed control at 200 ppm [1] [%] | pest or weed control at 200 ppm [2] [%] | pest or weed control at 200 ppm [3] [%] | pest or weed control at 200 ppm [4] [%] | pest or weed control at 200 ppm [5] [%] | pest or weed control at 200 ppm [6] [%] | melting point [°C]
O=C1C(SC2CCCCC2)NC(c2cccc(I)c2)=NN1CC(F)(F)F (centres unmarked) [Compound 49, 5-cyclohexylthio-3-(3-iodophenyl)-1-(2,2,2-trifluoroethyl)-4,5-1,2,4-dihydrotriazin-6(1H)-one] | 80 to 100 | 0 to 49 | 80 to 100 | 0 to 49 | 80 to 100 | 80 to 100 | 172 to 173
O=C1CNC(c2cc(-c3ccsc3)cc(-c3ccsc3)c2)=NN1CC(F)(F)F [Compound 61, 3-(3,5-dithien-3-ylphenyl)-1-(2,2,2-trifluoroethyl)-4,5-dihydro-1,2,4-triazin-6(1H)-one] | 0 to 49 | 0 to 49 | 0 to 49 | 0 to 49 | 80 to 100 | 80 to 100 | 180 to 182
O=C1CNC(c2cc(Br)cc(-c3ccsc3)c2)=NN1CC(F)(F)F [Compound 67, 3-(3-Bromo-5-thien-3-ylphenyl)-1-(2,2,2-trifluoroethyl)-4,5-dihydro-1,2,4-triazin-6(1H)-one] | 80 to 100 | 0 to 49 | 80 to 100 | 0 to 49 | 80 to 100 | 80 to 100 | 167 to 169
O=C1CNC(c2cc(Br)cc(-c3ccsc3)c2)=NN1Cc1ccccc1 [Compound 68] | 0 to 49 | 0 to 49 | 80 to 100 | 0 to 49 | 0 to 49 | 80 to 100 | 
O=C1CNC(c2cc(Br)cc(-c3ccsc3)c2)=NN1CCc1ccccc1 [Compound 69] | 0 to 49 | 0 to 49 | 50 to 79 | 0 to 49 | 0 to 49 | 50 to 79 | 
O=C1CNC(c2cccc(C#Cc3ccccc3)c2)=NN1CC(F)(F)F [Compound 70] | 0 to 49 | 0 to 49 | 0 to 49 | 0 to 49 | 0 to 49 | 80 to 100 | 
O=C1CNC(c2cccc(/C=C\c3ccccc3)c2)=NN1CC(F)(F)F [Compound 71] | 0 to 49 | 0 to 49 | 80 to 100 | 0 to 49 | 50 to 79 | 50 to 79 | 
O=C1CNC(c2cccc(/C=C3/CCc4ccccc43)c2)=NN1CC(F)(F)F [Compound 72] | 0 to 49 | 0 to 49 | 80 to 100 | 0 to 49 | 80 to 100 | 80 to 100 | 
O=C1CNC(c2cccc(Cc3ccccc3)c2)=NN1CC(F)(F)F [Compound 73, 3-(3-benzylphenyl)-1-(2,2,2-trifluoroethyl)-4,5-dihydro-1,2,4-triazin-6(1H)-one] | 0 to 49 | 0 to 49 | 80 to 100 | 0 to 49 | 80 to 100 | 80 to 100 | 104 to 106
CON=C(c1ccccc1)c1cccc(C2=NN(CC(F)(F)F)C(=O)CN2)c1 [Compound 75, 3-{3-[(Z)-(Methoxyimino)phenyl)methyl]phenyl}-1-(2,2,2-trifluoroethyl)-4,5-dihydro-1,2,4-triazin-6(1H)-one] | 0 to 49 | 0 to 49 | 80 to 100 | 0 to 49 | 80 to 100 | 80 to 100 | 119 to 123
O=C1CNC(c2cccc(C(=NOCc3ccccc3)c3ccccc3)c2)=NN1CC(F)(F)F [Compound 76] | 0 to 49 | 0 to 49 | 50 to 79 | 0 to 49 | 50 to 79 | 80 to 100 | 
O=c1cnc(-c2ccc(N3CCOCC3)cc2)nn1CC(F)(F)F [Compound 77] | 80 to 100 | 50 to 79 | 50 to 79 | 50 to 79 | 0 to 49 | 80 to 100 | 
O=c1cnc(-c2ccc(Oc3cccnc3)cc2)nn1CC(F)(F)F [Compound 78] | 80 to 100 | 0 to 49 | 50 to 79 | 80 to 100 | 80 to 100 | 80 to 100 | 
